Key:
C. elegans = assay: Efficacy against nematodes (C. elegans motility rating); design: key: 0: no effect; 7: reduced movement in 24 h; 8: dead in 24 h; 9: dead in 4 h; conditions: observations at 4 h and 24 h postimmersion
Summary of the method: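 Mixed-stage C. elegans (~50 per well, L1 to adult) in M9 buffer exposed to test compound at 100 ppm, 150 ppm or 200 μM final. Motility of larvae and adults scored under dissecting microscope at 4 h and 24 h.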

[1] = test system: Trichostrongylus columbriformis; assay: In vivo efficacy against T. colubriformis in infected gerbils; conditions: gerbils infected with T. colubriformis; single oral dose of 50 mg/kg by gavage; worm counts four days post-treatment; % mortality as compared to negative control
Protocol: In Vivo Evaluation of the Efficacy of Test Compounds Against T. colubriformis
In this evaluation, gerbils are infected with Trichostrongylus columbriformis infective larvae at a concentration of approximately 800 L3/mL. Larvae for gerbil infections are cultured from feces from sheep previously infected with T. colubriformis. One week post infection, test compounds are administered by gavage as a single oral dose of 50 mg/kg of body weight. For each group of 3 gerbils, 10 mg of test compound are dissolved in 2 mL of PEG 400:DMSO (1:2 v/v) and each animal is administered the test solution at a rate of 0.1 mL/10 g of body weight. […] All animals are observed daily for morbidity and mortality. Four days post-treatment, all animals are weighed and necropsied. Worm counts are conducted with the use of stereoscopes and counters.

SMILES	Rating (C. elegans; dose 150 ppm)	Mortality [1] [%]	Rating (C. elegans; dose 100 ppm)
O=C1O/C(=C\c2cccc3ccccc23)C(O)=C1c1cc(Cl)cc(Cl)c1 [R=H; R1=3,5-diCl—C6H3; R2=1-naphthyl]	9	0.00	
O=C1OC(=Cc2ccc(Cl)cc2)C(O)=C1c1ccc(F)cc1 (mixture of isomers) [R=H; R1=4-F—C6H4**; R2=4-Cl—C6H4]		0.00	9
O=C1OC(=Cc2ccc(Cl)s2)C(O)=C1c1ccc(OC(F)(F)F)cc1 (mixture of isomers)		26.10	9
N#Cc1ccc(C2=C(O)C(=Cc3ccccc3C(F)(F)F)OC2=O)cc1 [R=H; R1=4-CN—C6H4; R2=2-CF3—C6H4]	7	69.78	
O=C1OC(=Cc2ccc(-c3ccc(Cl)cc3)cc2)C(O)=C1c1ccc(F)cc1 (mixture of isomers)		1.60	9
N#Cc1ccc(C=C2OC(=O)C(c3cccc(C(F)(F)F)c3)=C2O)cc1 (mixture of isomers) [R=H; R1=3-CF3—C6H4**; R2=4-CN—C6H4]		0.00	9
O=C1OC(=Cc2ccc(Oc3ccccc3)cc2)C(O)=C1c1ccc(OC(F)(F)F)cc1 (mixture of isomers) [R=H; R1=4-OCF3—C6H4**; R2=4-phenoxy-C6H4]		0.00	0
O=C1OC(=Cc2cnccc2-c2cccs2)C(O)=C1c1ccc(OC(F)(F)F)cc1 (mixture of isomers)		12.80	9
O=C1O/C(=C\c2ccc(-c3ccccc3)cc2)C(O)=C1c1ccccc1C(F)(F)F [R=H; R1=2-CF3—C6H4; R2=4-biphenyl]	8	20.20	
N#Cc1ccc(C=C2OC(=O)C(c3ccc(-c4ccc(Cl)cc4)cc3)=C2O)cc1 (mixture of isomers)		0.00	9
O=C1OC(=Cc2ccc(Cl)cc2)C(O)=C1c1cccc(Cl)c1 (mixture of isomers) [R=H; R1=3-Cl—C6H4**; R2=4-Cl—C6H4]		18.80	9
O=C1OC(=Cc2ccc(C(F)(F)F)cc2)C(O)=C1c1ccc(-c2ccccc2)cc1 [R=H; R1=4-biphenyl; R2=4-CF3—C6H4]	9	0.00	
O=C1O/C(=C\c2cccc3ccccc23)C(O)=C1c1ccc2ccccc2c1 [R=H; R1=2-naphthyl; R2=1-naphthyl]	9	36.10	
N#Cc1ccc(-c2ccc(C=C3OC(=O)C(c4cccc(Cl)c4)=C3O)cc2)cc1 (mixture of isomers)		32.00	9
N#Cc1ccc(C=C2OC(=O)C(c3ccc(F)cc3)=C2O)cc1 (mixture of isomers) [R=H; R1=4-F—C6H4**; R2=4-CN—C6H4]		14.70	9
Cc1ccccc1C1=C(O)C(=Cc2ccc(-c3ccccc3C)cc2)OC1=O	8	21.30	
O=C1OC(=Cc2ccc(C(F)(F)F)cc2)C(O)=C1c1cccc(Cl)c1 (mixture of isomers) [R=H; R1=3-Cl—C6H4**; R2=4-CF3—C6H4]		57.90	9
COc1ccc(C=C2OC(=O)C(c3ccc(Cl)cc3)=C2O)cc1 [R=H; R1=4-Cl—C6H4; R2=4-OCH3—C6H4]	0	7.10	

SMILES	Rating (C. elegans; dose 150 ppm)	Mortality [1] [%]	Rating (C. elegans; dose 100 ppm)
O=C1O/C(=C\c2ccc(-c3ccc(Cl)c(Cl)c3)cc2)C(O)=C1c1ccc(Cl)c(Cl)c1	9	22.00	
N#Cc1cccc(C2=C(O)C(=Cc3ccc(Cl)cc3)OC2=O)c1 (mixture of isomers) [R=H; R1=3-CN—C6H4**; R2=4-Cl—C6H4]		0.00	9
O=C1OC(=Cc2ccc(Cl)cc2Cl)C(O)=C1c1ccc(Cl)cc1 (mixture of isomers) [R=H; R1=4-Cl—C6H4**; R2=2,4-diCl—C6H4]		91.40	9
N#Cc1ccc(C=C2OC(=O)C(c3cccc(Cl)c3)=C2O)cc1 (mixture of isomers) [R=H; R1=3-Cl—C6H4**; R2=4-CN—C6H4]		43.70	9
O=C1OC(=Cc2cccs2)C(O)=C1c1ccc(OC(F)(F)F)cc1 (mixture of isomers) [R=H; R1=4-OCF3—C6H4**; R2=thiophen-2-yl]		0.00	0
O=C1OC(=Cc2cnccc2Br)C(O)=C1c1ccc(OC(F)(F)F)cc1 (mixture of isomers)		12.80	9
O=C1O/C(=C\c2cccc3ccccc23)C(O)=C1c1ccc(Cl)cc1 [R=H; R1=4-Cl—C6H4; R2=1-naphthyl]	9	0.00	
O=C1OC(=Cc2ccc(C(F)(F)F)cc2)C(O)=C1c1ccc(F)cc1 (mixture of isomers) [R=H; R1=4-F—C6H4**; R2=4-CF3—C6H4]		25.60	9
N#Cc1ccc(-c2ccc(C3=C(O)C(=Cc4ccc(Cl)cc4)OC3=O)cc2)cc1 (mixture of isomers)		13.10	9
N#Cc1ccc(C2=C(O)C(=Cc3ccc4c(c3)OC(F)(F)O4)OC2=O)cc1 (mixture of isomers)		88.10	9
O=C1O/C(=C\c2ccc(-c3ccccc3)cc2)C(O)=C1c1ccc(Cl)c(Cl)c1 [R=H; R1=3,4-diCl—C6H3; R2=4-biphenyl]	9	23.00	
O=C1O/C(=C\c2ccc(-c3ccccc3)cc2)C(O)=C1c1ccc(Cl)cc1Cl [R=H; R1=2,4-diCl—C6H3; R2=4-biphenyl]	9	24.50	
N#Cc1ccc(C2=C(O)C(=Cc3ccc(F)cc3)OC2=O)cc1 (mixture of isomers) [R=H; R1=4-CN—C6H4**; R2=4-F—C6H4]		82.10	9
N#Cc1cccc(C2=C(O)C(=Cc3ccc(-c4ccc(Cl)cc4)cc3)OC2=O)c1 (mixture of isomers)		0.00	9
O=C1OC(=Cc2ccc(C(F)(F)F)c(F)c2)C(O)=C1c1ccc(OC(F)(F)F)cc1 (mixture of isomers) [R=H; R1=4-OCF3—C6H4**; R2=3-F-4-CF3—C6H3]		44.20	9
CC(=O)c1cccc(C2=C(O)C(=Cc3cccc4ccccc34)OC2=O)c1 [R=H; R1=3-COCH3—C6H4; R2=1-naphthyl]	8	10.70	
O=C1OC(=Cc2ccc(OC(F)(F)F)cc2)C(O)=C1c1ccc(F)cc1 (mixture of isomers) [R=H; R1=4-F—C6H4**; R2=4-OCF3—C6H4]		51.60	9

Source: US7495027B2, “3-aryl-4-hydroxyfuranone compounds and the human and animal health use thereof” (Wyeth, priority 2003, dated 2009)
